Measurements as given in ChEMBL document CHEMBL5131503, “Scaffold hopping of celastrol provides derivatives containing pepper ring, pyrazine and oxazole substructures as potent autophagy inducers against breast cancer cell line MCF-7” (Eur J Med Chem, 2022).

Columns and labels:
[1] = Selectivity index, ratio of IC50 for antiproliferative activity against human L02 cells assessed as inhibition of cell growth to IC50 for antiproliferative activity against human MCF7 cells assessed as inhibition of cell growth; assay type: toxicity, cell-based; details: L02 cells versus MCF7 cells
[2] = Antiproliferative activity against human L02 cells assessed as inhibition of cell growth incubated for 96 hrs by MTT assay; assay type: toxicity, cell-based
A549 = experiment: Antiproliferative activity against human A549 cells assessed as inhibition of cell growth incubated for 96 hrs by MTT assay; assay type: functional, cell-based; details: A549, 96 h
MCF7 = experiment: Antiproliferative activity against human MCF7 cells assessed as inhibition of cell growth incubated for 96 hrs by MTT assay; assay type: functional, cell-based; details: MCF7, 96 h
Bel-7402 = experiment: Antiproliferative activity against human Bel-7402 cells assessed as inhibition of cell growth incubated for 96 hrs by MTT assay; assay type: functional, cell-based; details: Bel-7402, 96 h
HT-29 = experiment: Antiproliferative activity against human HT-29 cells assessed as inhibition of cell growth incubated for 96 hrs by MTT assay; assay type: functional, cell-based; details: HT-29, 96 h
PC-3 = experiment: Antiproliferative activity against human PC-3 cells assessed as inhibition of cell growth incubated for 96 hrs by MTT assay; assay type: functional, cell-based; details: PC-3, 96 h

Compound | selectivity ratio ([1]; read-out: Selectivity Index) | IC50 at 96 h [2] | IC50 (A549) | IC50 (MCF7) | IC50 (Bel-7402) | IC50 (HT-29) | IC50 (PC-3) | selectivity ratio ([1]; read-out: Ratio IC50)
Cc1c2c(cc3nccnc13)C1=CC[C@@]3(C)[C@@H]4C[C@](C)(NC(=O)NCCN(C)C)CC[C@]4(C)CC[C@]3(C)[C@]1(C)C=C2 | 1.55 | 4.79 µM | 4.95 µM | 3.1 µM | 5.58 µM | 1.43 µM | 4.55 µM | 
Cc1c2c(cc3ncoc13)C1=CC[C@@]3(C)[C@@H]4C[C@](C)(NC(=O)NCCO)CC[C@]4(C)CC[C@]3(C)[C@]1(C)C=C2 |  |  | > 10 µM | > 10 µM | > 10 µM | > 10 µM | > 10 µM | 
Cc1c2c(cc3c1OCO3)C1=CC[C@@]3(C)[C@@H]4C[C@](C)(NC(=O)N5CCN(C6CCN(C)CC6)CC5)CC[C@]4(C)CC[C@]3(C)[C@]1(C)C=C2 | 1.99 | 6.49 µM | 4.13 µM | 3.25 µM | 9.55 µM |  | 5.65 µM | 
Cc1c2c(cc3ncoc13)C1=CC[C@@]3(C)[C@@H]4C[C@](C)(NC(=O)NCCN(C)C)CC[C@]4(C)CC[C@]3(C)[C@]1(C)C=C2 | 1.69 | 5.71 µM | 6.38 µM | 3.38 µM | 8.75 µM | 2.02 µM | 4.58 µM | 
Cc1c2c(cc3c1OCO3)C1=CC[C@@]3(C)[C@@H]4C[C@](C)(NC(=O)N5CCN(CCO)CC5)CC[C@]4(C)CC[C@]3(C)[C@]1(C)C=C2 |  |  | 6.96 µM | > 10 µM | > 10 µM | 3.22 µM | > 10 µM | 
O=c1[nH]cc(F)c(=O)[nH]1 [FLUOROURACIL] |  |  | 3.85 µM | 10.9 µM | 14.9 µM | 16 µM | 9.09 µM | 
Cc1c2c(cc3c1OCO3)C1=CC[C@@]3(C)[C@@H]4C[C@](C)(NC(=O)NCCN(C)C)CC[C@]4(C)CC[C@]3(C)[C@]1(C)C=C2 | 3.03 | 8.11 µM | 6.59 µM | 2.64 µM | 9.89 µM | 2.41 µM | 8.11 µM | 
CC1=C(O)C(=O)C=C2C1=CC=C1[C@@]2(C)CC[C@@]2(C)[C@@H]3C[C@](C)(C(=O)O)CC[C@]3(C)CC[C@]12C [CELASTROL] |  | 0.64 µM | 0.98 µM | 2.23 µM | 1.81 µM | 0.6 µM | 1.68 µM | 0.29
Cc1c2c(cc3nccnc13)C1=CC[C@@]3(C)[C@@H]4C[C@](C)(NC(=O)N5CCOCC5)CC[C@]4(C)CC[C@]3(C)[C@]1(C)C=C2 |  |  | > 10 µM | > 10 µM | > 10 µM | > 10 µM | > 10 µM | 
Cc1c2c(cc3ncoc13)C1=CC[C@@]3(C)[C@@H]4C[C@](C)(NC(=O)N5CCN(CCO)CC5)CC[C@]4(C)CC[C@]3(C)[C@]1(C)C=C2 | 1.08 | 4.63 µM | 8.72 µM | 4.26 µM | > 10 µM | 2.08 µM | 6.42 µM | 
Cc1c2c(cc3ncoc13)C1=CC[C@@]3(C)[C@@H]4C[C@](C)(NC(=O)N5CCN(C)CC5)CC[C@]4(C)CC[C@]3(C)[C@]1(C)C=C2 | 2.58 | 16.5 µM | 6.99 µM | 6.38 µM | > 10 µM | 1.28 µM | 5.78 µM | 
Cc1c2c(cc3ncoc13)C1=CC[C@@]3(C)[C@@H]4C[C@](C)(NC(=O)N5CCN(C6CCN(C)CC6)CC5)CC[C@]4(C)CC[C@]3(C)[C@]1(C)C=C2 | 3.64 | 10 µM | 4.15 µM | 2.75 µM | 9.02 µM | 2.02 µM | 5.12 µM | 
Cc1c2c(cc3c1OCO3)C1=CC[C@@]3(C)[C@@H]4C[C@](C)(NC(=O)NCCO)CC[C@]4(C)CC[C@]3(C)[C@]1(C)C=C2 |  |  | > 10 µM | > 10 µM | > 10 µM | > 10 µM | > 10 µM | 
Cc1c2c(cc3nccnc13)C1=CC[C@@]3(C)[C@@H]4C[C@](C)(NC(=O)N5CCN(CCN(C)C)CC5)CC[C@]4(C)CC[C@]3(C)[C@]1(C)C=C2 | 1.61 | 3.64 µM | 3.86 µM | 2.26 µM | 7.4 µM | 1.76 µM | 4.56 µM | 
Cc1c2c(cc3c1OCO3)C1=CC[C@@]3(C)[C@@H]4C[C@](C)(NC(=O)N5CCN(CCN6CCOCC6)CC5)CC[C@]4(C)CC[C@]3(C)[C@]1(C)C=C2 | 1.4 | 14.2 µM | 11.2 µM | 10.1 µM | > 10 µM | 4.19 µM | 11 µM | 
Cc1c2c(cc3nccnc13)C1=CC[C@@]3(C)[C@@H]4C[C@](C)(NC(=O)N5CCN(C)CC5)CC[C@]4(C)CC[C@]3(C)[C@]1(C)C=C2 | 1.69 | 6.24 µM | 5.58 µM | 3.69 µM | 6.69 µM | 2.99 µM | 5.91 µM | 
Cc1c2c(cc3c1OCO3)C1=CC[C@@]3(C)[C@@H]4C[C@](C)(NC(=O)N5CCN(CCN(C)C)CC5)CC[C@]4(C)CC[C@]3(C)[C@]1(C)C=C2 | 1.91 | 13.6 µM | 7.29 µM | 7.14 µM | > 10 µM | 10.2 µM | 11.7 µM | 
Cc1c2c(cc3nccnc13)C1=CC[C@@]3(C)[C@@H]4C[C@](C)(NC(=O)N5CCN(CCO)CC5)CC[C@]4(C)CC[C@]3(C)[C@]1(C)C=C2 | 1.45 | 9.41 µM | 9.27 µM | 6.5 µM | > 10 µM | 4.24 µM | 7.41 µM | 
Cc1c2c(cc3nccnc13)C1=CC[C@@]3(C)[C@@H]4C[C@](C)(NC(=O)N5CCN(CCN6CCOCC6)CC5)CC[C@]4(C)CC[C@]3(C)[C@]1(C)C=C2 |  |  | > 10 µM | > 10 µM | > 10 µM | > 10 µM | 10.3 µM | 
Cc1c2c(cc3nccnc13)C1=CC[C@@]3(C)[C@@H]4C[C@](C)(NC(=O)N5CCNCC5)CC[C@]4(C)CC[C@]3(C)[C@]1(C)C=C2 | 1.53 | 7.62 µM | 6.33 µM | 4.99 µM | 9.44 µM | 3.86 µM | 5.89 µM | 
Cc1c2c(cc3ncoc13)C1=CC[C@@]3(C)[C@@H]4C[C@](C)(NC(=O)N5CCOCC5)CC[C@]4(C)CC[C@]3(C)[C@]1(C)C=C2 |  |  | > 10 µM | > 10 µM | > 10 µM | > 10 µM | > 10 µM | 
Cc1c2c(cc3ncoc13)C1=CC[C@@]3(C)[C@@H]4C[C@](C)(NC(=O)N5CCNCC5)CC[C@]4(C)CC[C@]3(C)[C@]1(C)C=C2 | 1.95 | 8.9 µM | 5.78 µM | 4.56 µM | 6.56 µM | 4.8 µM | > 10 µM | 
Cc1c2c(cc3c1OCO3)C1=CC[C@@]3(C)[C@@H]4C[C@](C)(NC(=O)N5CCN(C)CC5)CC[C@]4(C)CC[C@]3(C)[C@]1(C)C=C2 |  |  | > 10 µM | > 10 µM | > 10 µM | > 10 µM | > 10 µM | 
Cc1c2c(cc3c1OCO3)C1=CC[C@@]3(C)[C@@H]4C[C@](C)(NC(=O)N5CCOCC5)CC[C@]4(C)CC[C@]3(C)[C@]1(C)C=C2 |  |  | > 10 µM | > 10 µM | > 10 µM | > 10 µM | > 10 µM | 
Cc1c2c(cc3nccnc13)C1=CC[C@@]3(C)[C@@H]4C[C@](C)(NC(=O)NCCO)CC[C@]4(C)CC[C@]3(C)[C@]1(C)C=C2 |  |  | > 10 µM | > 10 µM | > 10 µM | > 10 µM | > 10 µM | 
